According to paper PMC9143043, “Synthesis and Biological Evaluation of 5′-O-Fatty Acyl Ester Derivatives of 3′-Fluoro-2′,3′-dideoxythymidine as Potential Anti-HIV Microbicides” (Molecules, 2022):
Read-outs that look alike come from different tables or passages of the source.

What was measured:
[1] = tested on: human vaginal cells (VK-2/E6E7); assay: Vaginal cell cytotoxicity (MTS assay); format: cell-based; details: 6 h incubation; 31-1000 µg/mL
Protocol: A commercially used spermicidal agent (N-9) and conjugate cytotoxicity was evaluated using immortalized human vaginal cells (VK-2/E6E7). […] Observed cytotoxicity from N-9 could be correlated with the generation of higher levels of cytokines by N-9.
(§1) Human T lymphoblastoid cells (CCRF-CEM, ATCC No. CCL-119) were grown to 70% confluency in a culture medium. CCRF-CEM cells were incubated with 10 µM of the compounds and mixed with trypan blue (0.1%) to color the dead cells. The percentage of viability was calculated by using a Cellometer Auto T.4 (Nexcelom Bioscience). The cell viability against the vaginal cells (VK-2/E6E7) was conducted according to the previously reported procedure. The effect of conjugates on the sperm viability and mobility was evaluated as described previously.
Figure 2 (A) Dose–response curves of the vaginal cytotoxicity in VK-2 cells (MTS assay) for 5, 6, 8, and N-9 after 6 h incubations. (B) Proinflammatory cytokine (IL-1α) production in the VK-2 cells (ELISA) after a 6 h incubation in the presence of 5, 6, 8, and N-9.

[2] = Cytotoxicity assay (MTS); format: cell-based; details: human, HeLa cells (ATCC CCL-2.1), Table 2; MTS; 50% effective concentration
[3] = Log D by liquid-liquid distribution chromatography; format: physicochemical; details: octanol-coated column with octanol-saturated mobile phases, pH 7.4
Protocol: Physicochemical properties including pKa, Log D, and solubility were determined for 5 (as a model compound). […] It was not possible to measure the partition coefficient (Log P) of the fatty acyl derivatives of FLT and AZT in a standard n-octanol/water mixture because of the insolubility of the compounds in water. The cLog P value was calculated as 5.23 using ChemDraw. […] Since most of 5 is in its neutral form, the Log D value will correspond to the Log P value.
The Log P of 5 was initially investigated by the pH-metric (potentiometric) method. The sample was titrated in three triple titrations from pH 2.5 to pH 11.9 at concentrations of 0.7–1.1 mM in various ratios of octanol/water. The results indicated high sample lipophilicity, although the Log P could not be determined due to the apparent pKa in octanol shifting out of the measurable range. Therefore, the Log D of 5 at pH 7.4 was measured as 5.04 using liquid–liquid distribution chromatography. The Profiler LDA is an isocratic chromatography system that uses an octanol-coated column with octanol saturated mobile phases adjusted to pH 7.4. […]

[4] = tested on: HIV-1 A-17 MDR (B-NNRTI); assay: PBMC multi-round infection assay, resistant isolate A-17; format: cell-based
Protocol: Based on a preliminary screening, conjugates 5 and 8 were evaluated for their ability to inhibit a drug-resistant virus in a peripheral blood mononuclear cell (PBMC) assay. In this assay, FLT, 5, and 8 were tested against B- and C-wild type and A-17 and 4755–5 multidrug-resistant (MDR) clinical isolates of HIV-1, where compounds were incubated with PBMCs for 6 h and then washed off before the addition of the virus and further culture for 7 days.
For the assessment of compounds against the wild type (WT; R5; clones = 94US3393IN [B subtype] and 98USMSC5016 [C subtype]) and drug-resistant (clones = 4755−5 and A17) HIV-1 clinical isolates, PHA-P stimulated cells from at least two normal donors were pooled, diluted in fresh media, and plated in the interior wells of a 96-well round-bottom microplate. Pooling PBMCs from more than one donor was used to minimize the variability observed between the individual donors, which results from the quantitative and qualitative differences in HIV infection and overall response to the PHA and IL-2 of primary lymphocyte populations. Each plate contained virus/cell control wells (cells + virus), experimental wells (drug + cells + virus), and compound control wells (drug + media, no cells, necessary for MTS monitoring of cytotoxicity). Test drug dilutions were prepared in microtiter tubes, and each concentration was placed in appropriate wells. Following the addition of the drug dilutions to the PBMCs, a predetermined dilution of virus stock was then placed in each test well (final MOI ≅ 0.1). Because HIV-1 is not cytopathic to PBMCs, the same assay plate can be used for both the antiviral efficacy and cytotoxicity measurements. Compounds were incubated with virus and cells in a 96-well format for 6 h. The cells were then washed by removing 75% of the medium (150 μL) and replacing it with 150 μL of fresh (no drug) medium. The plates were then centrifuged (∼200 g) for 10 min, after which 150 μL of the medium was removed, and an additional 150 μL of fresh medium was added to each well and further incubated for 6 days or until peak reverse transcriptase (RT) activity was detected. A microtiter plate-based RT reaction was utilized. Incorporated radioactivity (counts per minute, CPM) was quantified using standard liquid scintillation techniques. Compound IC50 (50%, inhibition of virus replication) was calculated using statistical software and regression analysis. A cellular uptake study was conducted for fluorescence conjugates 23 and 24 using a previously published procedure with minor modifications. All of the experiments were conducted in triplicate.

[5] = tested on: sperm; assay: Spermicidal activity (sperm viability and motility); format: cell-based; details: abstract; versus N-9 positive control
Protocol: In this study, several fatty acyl conjugates of nucleosides (5–8, 10–12, 15, and 16) were tested for their spermicidal activities. […] Detailed data analysis is available in the Supplementary Materials (Figure S2).
as §1

[6] = tested on: cell-associated HIV-1 IIIB (infected SulT1 cells); assay: Cell-associated transmission assay (IIIB); format: cell-based; details: Human immunodeficiency virus 1, IIIB, read-out: (CA) EC50, Table 2; cell-associated transmission assay (IIIB)
Protocol: (§2) Anti-HIV activities of the compounds were evaluated according to the previously reported procedure. In summary, the HeLa (Human cervical carcinoma: ATCC CCL-2.1) cell line was used to measure the inactivation of both the cell-free virus preparations and virus-infected cell preparations. The cells were plated in culture plates 24 h prior to each experiment. Cell-free viral preparations of HIV-1 strains IIIB (lymphocytotropic strain) and BaL (monocytotropic strain) were used for the cell-free assay. For the cell-associated assay, the SulT1 cells were infected with IIIB virus 5 days prior to the experiment. Cell-free virus and virus-infected cells were mixed with different compounds and diluted to make different concentrations. The mixture was further diluted with the buffer and added to the HeLa cells.

[7] = tested on: HIV-1 strain IIIB (lymphocytotropic strain); assay: Single-round infection assay, cell-free X4 virus (lymphocytotropic strain); format: cell-based; details: read-out: (X4) EC50, Table 2, single-round infection assay
Protocol: as §2

[8] = Human immunodeficiency virus 1, PBMC

Q: With `Cc1cn([C@H]2C[C@H](F)[C@@H](COC(=O)CCCCCCCCCCCN=[N+]=[N-])O2)c(=O)[nH]c1=O` [Compound 5, 3′-fluoro-2′,3′-dideoxy-5′-O-(12-azidododecanoyl)thymidine] as the compound, how does the “cytotoxicity to vaginal cells” value [1] read?
A: did not show significant cytotoxic effects

Q: What about the EC50 [2] of the same compound?
A: 1600 µM

Q: What about the chromatographic logD [3] of the same compound?
A: 5.04

Q: What about the IC50 [4, 8] of the same compound?
A: 0.0044 µM

Q: And the IC90 [4, 8]?
A: 0.0141 µM

Q: And the “fold more potent than FLT against A-17” value ([4]; versus FLT IC50)?
A: at least 6 fold

Q: What about the “effect on sperm viability” value [5] of the same compound?
A: did not alter vaginal cell and sperm viability

Q: And the EC50 [6]?
A: 12.6 µM

Q: What about the EC50 ([7]; Human immunodeficiency virus 1, IIIB) of the same compound?
A: ≤ 1 µM

Q: And the EC50 [7]?
A: 0.9 µM
